Values belong to the molecule of their own block, whether it stands above or below them. The source made the active and inactive calls.
Columns and labels:
[1] = target: Glyceraldehyde-3-phosphate dehydrogenase (Homo sapiens, UniProt P04406)
[2] = target: T1, Bcl-2-related protein A1 (Mus musculus, UniProt Q07440); test: Bfl-1 inhibitors blocking BH3 peptide binding, confirmation, biochemical, TR-FRET, mouse Bfl-1 (AID 621);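 further: TR-FRET binding of GST-Bfl-1 to FITC-labelled Bid peptide via terbium antibody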
T1 sequence (Q07440 whole entry): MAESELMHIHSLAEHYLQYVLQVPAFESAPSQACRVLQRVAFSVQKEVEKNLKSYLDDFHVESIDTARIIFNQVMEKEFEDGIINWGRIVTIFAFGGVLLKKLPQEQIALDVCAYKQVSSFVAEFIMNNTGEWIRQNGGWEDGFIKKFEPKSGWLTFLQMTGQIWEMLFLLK

[3] = target: T1, Bcl-2-related protein A1; test: Bfl-1 binding inhibitors, SAR follow-up, biochemical, fluorescence polarization (AID 1070)
[4] = target: Protein Tat (Human immunodeficiency virus type 1 group M subtype B (isolate HXB2)(HIV-1), UniProt P04608); type: functional;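 further: tat binding to TAR RNA read out by fluorescence polarization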
Sequence of Protein Tat (P04608 whole entry): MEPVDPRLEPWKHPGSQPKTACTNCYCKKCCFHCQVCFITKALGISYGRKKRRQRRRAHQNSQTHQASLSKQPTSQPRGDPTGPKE

[5] = cells; conditions: A549
[6] = target: Aryl hydrocarbon receptor (Homo sapiens, UniProt P35869); test: Luminescence-based cell-based high throughput dose response assay for activators of the Aryl Hydrocarbon Receptor (AHR). [Related pubchem assays: 2796 (Primary screen (AHR activators in singlicate)), 2845 (Confirmation screen (AHR activators in triplicate)), 434939 (Counterscreen (PXR activators in triplicate)), 2804 (Summary (AHR activators))]; type: ADME
Sequence of Aryl hydrocarbon receptor (P35869 whole entry): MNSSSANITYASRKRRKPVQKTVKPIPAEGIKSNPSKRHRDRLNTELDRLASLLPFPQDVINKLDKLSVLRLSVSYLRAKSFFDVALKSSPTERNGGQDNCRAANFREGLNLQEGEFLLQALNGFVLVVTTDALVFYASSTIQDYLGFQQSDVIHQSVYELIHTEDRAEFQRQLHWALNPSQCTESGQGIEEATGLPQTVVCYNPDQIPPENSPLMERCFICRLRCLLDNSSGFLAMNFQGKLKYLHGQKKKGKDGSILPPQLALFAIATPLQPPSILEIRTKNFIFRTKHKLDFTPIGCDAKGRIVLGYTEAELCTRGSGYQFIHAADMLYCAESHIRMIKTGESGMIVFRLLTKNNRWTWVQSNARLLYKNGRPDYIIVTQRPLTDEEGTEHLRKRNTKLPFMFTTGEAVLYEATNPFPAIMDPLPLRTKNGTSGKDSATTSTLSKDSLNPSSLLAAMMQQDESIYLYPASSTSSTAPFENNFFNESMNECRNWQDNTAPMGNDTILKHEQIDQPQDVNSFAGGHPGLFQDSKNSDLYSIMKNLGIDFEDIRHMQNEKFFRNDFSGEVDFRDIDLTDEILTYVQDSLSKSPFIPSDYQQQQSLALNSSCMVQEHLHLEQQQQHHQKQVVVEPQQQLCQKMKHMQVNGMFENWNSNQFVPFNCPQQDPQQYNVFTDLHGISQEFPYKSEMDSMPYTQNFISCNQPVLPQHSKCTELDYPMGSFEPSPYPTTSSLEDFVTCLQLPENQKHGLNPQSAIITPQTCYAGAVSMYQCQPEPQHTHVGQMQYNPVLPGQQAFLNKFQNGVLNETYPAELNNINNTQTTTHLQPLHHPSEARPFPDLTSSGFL

[7] = A549 cell cytotoxicity, dose response, cytotoxicity control, plate reader, cherry-pick, antagonist series (AID 743412); type: functional, cell-based
[8] = LGR2 antagonists, dose response, cell-based, HEK293, CRE-luciferase reporter, cherry pick, set 2 (AID 743343); type: functional;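 further: transfected cells were stimulated with diluted bursicon conditioned medium after compound addition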
[9] = MC4R antagonists, dose response, counter-screen for LGR2 antagonist project, cell-based, plate reader, cherry pick (AID 743444); type: functional;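 further: transfected HEK 293 cells stimulated with alpha-MSH peptide; potency of inhibitors of the alpha-MSH evoked signal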
[10] = HEK293 cell cytotoxicity, dose response, cytotoxicity control, plate reader, cherry-picked samples (AID 743446); type: functional, cell-based
[11] = THP-1 cell cytotoxicity, dose response, cytotoxicity control for Vif-APOBEC3G degradation inhibitor project, THP-1 cells (AID 1117359); type: functional; conditions: Human immunodeficiency virus 1, THP-1
[12] = target: Luciferin 4-monooxygenase (Photinus pyralis, UniProt P08659); test: Counter Screen for Luciferase-based Assay Positives. [Related pubchem assays: 620, 618, 411 ]
Sequence of Luciferin 4-monooxygenase (P08659 whole entry): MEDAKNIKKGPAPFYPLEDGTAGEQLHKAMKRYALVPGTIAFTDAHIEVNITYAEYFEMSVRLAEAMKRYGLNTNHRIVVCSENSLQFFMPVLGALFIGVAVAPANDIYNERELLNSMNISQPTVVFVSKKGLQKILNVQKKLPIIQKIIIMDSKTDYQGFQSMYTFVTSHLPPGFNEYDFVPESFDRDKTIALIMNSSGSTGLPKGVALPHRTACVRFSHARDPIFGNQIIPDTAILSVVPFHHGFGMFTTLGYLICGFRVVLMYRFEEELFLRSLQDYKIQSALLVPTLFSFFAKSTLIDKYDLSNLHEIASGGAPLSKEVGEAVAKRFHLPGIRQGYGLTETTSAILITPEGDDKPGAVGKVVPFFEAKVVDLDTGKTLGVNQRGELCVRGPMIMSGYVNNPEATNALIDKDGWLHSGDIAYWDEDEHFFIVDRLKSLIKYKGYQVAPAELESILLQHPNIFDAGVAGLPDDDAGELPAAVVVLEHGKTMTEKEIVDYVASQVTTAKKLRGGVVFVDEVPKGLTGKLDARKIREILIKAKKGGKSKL

[13] = system: HT-1080; test: cytotoxicity in HT1080 fibrosarcoma cells, cell-based, fluorescence readout (AID 620); type: functional; conditions: Homo sapiens
[14] = CEM21 lymphoblast cell cytotoxicity, dose response, cytotoxicity control for viral fusion inhibitor project, CellTiter-Glo luminescence, cherry-picked (AID 652042); type: functional, cell-based;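 further: potency for signal decrease meaning cytotoxicity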
[15] = ZM109 Env clade C HIV-1 fusion inhibitors, dose response, HeLa effector, CEM target cells, luciferase, cherry-pick (AID 652058); type: functional, cell-based
[16] = inhibitors of clade B AD8 Env fusion, dose response, cell-based, cherry-pick (AID 652062); type: functional;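 further: luciferase signal from cell-cell fusion driven by HIV-1 clade B AD8 Env; potency is for inhibitors of fusion seen as a drop in luminescence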
[17] = target: T2, COUP transcription factor 2 (Homo sapiens, UniProt P24468); test: Luminescence-based cell-based high throughput dose response assay to identify inhibitors of COUP-TFII (NR2F2).; type: functional;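 further: HEK293 cells transiently cotransfected with COUP-TFII expression vector and reporter; luciferase reporter luminescence driven by COUP-TFII from the pX2-168 reporter plasmid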
T2 sequence (P24468 whole entry): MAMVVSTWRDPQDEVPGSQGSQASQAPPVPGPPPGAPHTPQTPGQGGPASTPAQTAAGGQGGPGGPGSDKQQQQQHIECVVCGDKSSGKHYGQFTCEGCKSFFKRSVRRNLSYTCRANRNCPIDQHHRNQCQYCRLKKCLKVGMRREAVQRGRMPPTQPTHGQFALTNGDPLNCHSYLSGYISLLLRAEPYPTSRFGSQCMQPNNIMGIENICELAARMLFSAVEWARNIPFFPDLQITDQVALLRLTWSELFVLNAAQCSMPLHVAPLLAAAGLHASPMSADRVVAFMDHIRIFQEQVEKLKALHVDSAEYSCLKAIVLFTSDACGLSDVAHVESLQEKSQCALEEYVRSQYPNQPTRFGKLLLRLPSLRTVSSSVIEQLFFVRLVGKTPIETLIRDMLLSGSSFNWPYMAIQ

[18] = system: H9c2; test: cells; type: functional, cell-based; conditions: Rattus norvegicus, H9c2, Myocardium;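 further: confirmatory concentration-response retest of ultra-high-throughput screening hits for modulation of myocardial damage; cell death induced by hydrogen peroxide oxidative stress; compound pretreatment for 60 min then peroxide exposure for 2 h; potency is for protecting the cells against peroxide damage rather than for killing them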

Sequence of Glyceraldehyde-3-phosphate dehydrogenase (P04406 whole entry): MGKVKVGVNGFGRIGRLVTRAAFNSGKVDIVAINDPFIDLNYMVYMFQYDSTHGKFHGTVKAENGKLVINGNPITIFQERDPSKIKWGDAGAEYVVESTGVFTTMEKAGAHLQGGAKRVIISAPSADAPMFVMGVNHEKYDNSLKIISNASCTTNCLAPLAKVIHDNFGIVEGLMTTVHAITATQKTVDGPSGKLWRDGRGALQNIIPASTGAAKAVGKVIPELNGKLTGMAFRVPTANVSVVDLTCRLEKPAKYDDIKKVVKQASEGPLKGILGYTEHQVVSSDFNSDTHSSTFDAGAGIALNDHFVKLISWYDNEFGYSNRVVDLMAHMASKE

IC50 [1]: > 100 µM (not active)
IC50 [2]: 1.64 µM (active)
IC50 [3]: 1.62 µM (active)
Compound: O=C1C(Cl)=C(N2CCN(Cc3ccccc3)CC2)C(=O)N1c1ccc(Cl)c(Cl)c1

IC50 [4]: > 100 µM (active)
Compound: Cc1cc(C(=O)CSc2nnc(-c3ccccc3)n2Cc2ccc3c(c2)OCO3)c(C)n1C

Compound: COc1ccc(C2CC(c3ccccc3)=NN2c2ccc(C(N)=O)cc2)cc1 (stereo not drawn)
AC50 [5]: 39.1 µM (active)

EC50 [6]: 1.66 µM (active)
Compound: CC(=O)c1ccc(NC(=O)c2cc(Cl)nc3ccccc23)cc1

EC50 [6]: 0.845 µM (active)
Compound: CN(C)c1nc(N)nc(-c2nc3ccccc3s2)n1

IC50 [1]: > 100 µM (not active)
IC50 [2]: > 100 µM (not active)
IC50 [3]: > 100 µM (not active)
Compound: Cc1cc(-c2ccccc2)nc(S(C)(=O)=O)n1

Compound: COc1ccc(Nc2ncc(F)c(N3CCOCC3)n2)cc1
AC50 [7]: > 52 µM (inactive)
AC50 [8]: 18 µM (active)
AC50 [9]: 10.2 µM (active)
AC50 [10]: > 52 µM (inactive)
CC50 [11]: > 40 µM (active)

Compound: COc1ccc(-n2ncc3c(NCC(C)C)ncnc32)cc1
EC50 [12]: 1.17 µM (active)
EC50 [13]: > 50 µM (not active)

Compound: Cc1ccc(Cn2ncc3c(N4CCN(Cc5ccc(Cl)cc5)CC4)ncnc32)cc1
AC50 [14]: 52 µM (active)
AC50 [15]: 0.606 µM (active)
AC50 [16]: 3.86 µM (active)
IC50 [17]: 10.6 µM (inactive)

Compound: CCOc1ccc2nc(O)c(CN(Cc3nnnn3Cc3ccco3)C3CCCCC3)cc2c1
IC50 [18]: 25.5 µM (active)
CC50 [11]: > 40 µM (active)

Reference: ChEMBL document CHEMBL1201862, “PubChem BioAssay data set” (2004)
